Measurements as given in PubChem BioAssay AID2305 (GlaxoSmithKline (GSK), 2010).
pIC50: −log10 of the molar value. Values joined by “and” are separate entries in the source; they are usually repeats but may differ in a detail not shown here. Equal entries are not always repeated.

Tested on: P. falciparum 3D7 growth, pLDH absorbance
Assay: blood-stage malaria parasite growth potency – strain 3D7, dose response (AID 2305)

`CC(C)CCN(Cc1cncn1Cc1cccc(C(F)(F)F)c1)C(=O)c1cncc(-c2ccccc2)c1` showed a pIC50 of 6.11.

With `CC(C)Cn1c(N)cc(=O)n(C)c1=O` the pIC50 was 6.01.

Work on `CS(=O)(=O)c1ccc2c(c1)CCN(CCC1CCC(NC(=O)C(=Cc3ccc(Cl)cc3Cl)c3ccc(-c4ccccc4)cc3)CC1)CC2` (stereo not given) yielded a pIC50 of 5.93.

For `CN(C)C(=O)c1cc(CNCc2ccccc2)ccc1-c1cccc(CNCc2ccc(-c3ccccc3)cc2)c1`, the pIC50 was 5.98.

With `Clc1ccc(-c2ncc(-c3ccncc3)[nH]2)cc1Cl` the pIC50 was 5.97.

With `O=C([C@H]1C[C@@H]1c1ccccc1)N(Cc1ccc(-c2ccc(CNCCc3ccccc3)cc2)cc1)C1CCNCC1` the pIC50 was 5.95.

`CN(CCN1CCC(c2c[nH]c3ccccc23)CC1)c1ccc(-c2nc3cc(Cl)c(Cl)cc3[nH]2)cc1` was tested, and the pIC50 was 6.92.

Work on `CC(C)CNCc1cccc(-c2cccc(CN(CCCN3CCN(C)CC3)C(=O)NC3CCCCC3)c2)c1` yielded a pIC50 of 6.12.

`COc1ccc(CNCc2ccc(-c3ccc(-c4nc5c(C)cccc5[nH]4)s3)cc2)cc1` showed a pIC50 of 6.74.

In the case of `COC(=O)c1cccc(C#CCCOCCCCCCNC[C@H](O)c2cc(Cl)c(N)c(Cl)c2)c1`, the pIC50 was 6.11.

In the case of `N=c1c2c(n(Cc3ccccc3)c3c1CCC3)CCCC2`, the pIC50 was 6.06.

With `CC(=O)Nc1ccc(OCCN(CC(C)C)c2ccc(C#N)c(C(F)(F)F)c2)c(Cl)c1` the pIC50 was 6.10.

For `COCCOc1ccc(Nc2nccc(-c3c(-c4cccc(NC(=O)c5c(F)cccc5F)c4)nn4ccccc34)n2)cc1Cl`, the pIC50 was 6.44.

With `C#CCOc1ccc(CC(C)NCC(O)c2cccc(C(F)(F)F)c2)cc1` (stereo not given) the pIC50 was 5.92 and 5.99.

`O=C(NCC(NCCCNc1cc(=O)c2ccccc2[nH]1)c1cc(Br)cc(Br)c1)C1=CCCC1` (stereo not given) was tested, and the pIC50 was 6.05.

`CCOc1ccc(N2C(N)=NC(N)=NC2(C)C)cc1` gave a pIC50 of 6.59.

For `CCCc1cc(Cc2cnc(N)nc2N)cc(CC)c1O`, the pIC50 was 5.88.

Compound `CN(C)c1ccc(C=Cc2nc(=O)c3ccccc3o2)cc1` has a pIC50 of 7.40.

With `N#Cc1ccc(CN2CCC(NC(=O)c3ccc(-c4nnc(-c5cccc6ccccc56)o4)cc3)CC2)cc1` the pIC50 was 6.17.

Work on `COc1c(C2CCN(CCCCNC(=O)c3ccc(-c4ccc(Cl)cc4)cc3)CC2)ccc2c1C(C)(C)CCC2(C)C` yielded a pIC50 of 6.11.

Work on `COc1ccc(C(=O)COc2cccc(/C=C/C(=O)O)c2)cc1OC` yielded a pIC50 of 5.88.

`COc1ccc(NC(=O)[C@H](CC(C)C)Nc2ccnc(Nc3ccccc3)n2)cc1` was tested, and the pIC50 was 5.80.

`Nc1nc(N)c2c(ccc3c2cnn3Cc2cccnc2)n1` was tested, and the pIC50 was 7.30.

In the case of `COc1ccc(C=NNc2c3ccccc3nc3ccccc23)c2ccccc12`, the pIC50 was 5.95.

With `Cc1[nH]c(C)c(-c2ccc(OCc3ccc(F)cc3)nc2)c(=O)c1Br` the pIC50 was 6.70.

`COc1ccc(CNCc2ccc(-c3cccc(-c4nc5ccccc5[nH]4)c3)cc2)cc1` was tested, and the pIC50 was 6.68.

With `O=C(Nc1ccc(C(F)(F)F)cc1)c1cc(Br)cnc1NCCCn1ccnc1` the pIC50 was 6.01.

Work on `Cc1ccc2c(NN=Cc3cccc(Cl)c3)cc(C)nc2c1` yielded a pIC50 of 6.02.

In the case of `Cc1cc(N[C@@H](CC(C)C)C(=O)NCc2cccc(F)c2)nc(NCCc2ccccc2)n1`, the pIC50 was 5.97.

`CCOc1ccc2nc3cc(N)ccc3c(N)c2c1` gave a pIC50 of 6.28.

In the case of `NC(=O)c1cccc(C(=O)Nc2ccc(-c3cccc(-c4nc5ccc(C(F)(F)F)cc5[nH]4)c3)cc2)c1`, the pIC50 was 6.46.

`CN(C)CCOc1ccnc2ccc(NC(=O)Cc3ccc(-c4ccncc4)c4ccccc34)cc12` showed a pIC50 of 6.55.

In the case of `CCC(=O)c1c(C)n(-c2ncnc3c2nc(C)n3-c2ccc(C)cc2C)c2ccccc12`, the pIC50 was 6.19.

`O=C(Cc1ccccc1)NC(Nc1ccc([N+](=O)[O-])cc1)C(Cl)(Cl)Cl` (stereo not given) showed a pIC50 of 6.01.

Work on `Cc1cccc2[nH]c(-c3cccc(-c4cccc(NC(=O)Cc5cnc[nH]5)c4)c3)nc12` yielded a pIC50 of 6.17.

In the case of `O=C(NCc1cccc(F)c1)c1ccc(O)c(-c2cc(Cl)cc(Cl)c2)c1`, the pIC50 was 6.25.

In the case of `C=CCn1c(Sc2ccc(C#N)c([N+](=O)[O-])c2)nnc1-c1ccc(Cl)cc1`, the pIC50 was 6.17.

`CCc1cc(NC2CCN(C)CC2)nc(Nc2ccc(C)cc2)n1` gave a pIC50 of 6.16.

`O=C(C1CCN(C(c2ccccc2)c2ccc(Cl)c(Cl)c2)CC1)N1CC=CC1` (stereo not given) gave a pIC50 of 6.14.

In the case of `CO/C(=C\C=C\c1cc2cc(Cl)c(Cl)cc2[nH]1)C(=O)NCCCN1CCN(c2cccc(OCC(=O)Nc3ccccc3)c2)CC1`, the pIC50 was 6.30.

In the case of `O=C(N[C@@H](Cc1ccccc1)C(=O)NC1CCCCC1)c1ccc(O)c(-c2cccc(C(F)(F)F)c2)c1`, the pIC50 was 6.09.

Work on `CNCCNc1nccc(N2CCc3ncnc(Nc4ccc(OCc5cccc(F)c5)c(Cl)c4)c3C2)n1` yielded a pIC50 of 6.70.

In the case of `COc1ccc(O)c(Cc2cnc3nc(N)nc(N)c3c2C)c1`, the pIC50 was 7.40.

Work on `COc1c(C)[nH]c(C)c(-c2ccc(Oc3cccc(C(F)(F)F)c3)cc2)c1=O` yielded a pIC50 of 6.51.

In the case of `CC[C@H]1CN(Cc2ccccc2Br)CC[C@H]1CCCc1ccnc2ccc(O)cc12`, the pIC50 was 6.00.

For `CCn1cc(CN2C(=O)C(c3ccccc3)(c3ccccc3)N=C2N)cn1`, the pIC50 was 6.09.

Work on `Oc1ccc2c(c1CNC1CCCCC1)CCCC2` yielded a pIC50 of 6.03.

`COc1ccc(S(=O)(=O)NCCC2CCN(CCCCCNC(=O)C=Cc3ccc(Cl)c(Cl)c3)CC2)cc1` showed a pIC50 of 6.02.

For `COc1nc2c(CCN3CCC(NCc4ccc5c(c4)NC(=O)CO5)CC3)c(Cl)cnc2cc1F`, the pIC50 was 6.11.

For `Fc1ccc2[nH]c(-c3ccccc3)nc2c1CN1CCC(N2CCCC2)CC1`, the pIC50 was 6.14.

For `Cc1ccc2nc(C)n(C3CCN(C(=O)C4(c5ccccc5)CC4)CC3)c2c1`, the pIC50 was 6.09.

With `O=C(Nc1ccc(N2CCN(Cc3c[nH]c4cc(F)ccc34)CC2)cc1)c1ccccc1-c1ccc(C(F)(F)F)cc1` the pIC50 was 6.00.

`COc1ccc(Cl)cc1N1CCN(CCCNC(=O)c2ccc(-c3nc4cc(Cl)c(F)cc4[nH]3)cc2)CC1` showed a pIC50 of 5.97.

`CC1(C)N=C(N)N=C(N)N1OCC1COc2ccccc2O1` (stereo not given) was tested, and the pIC50 was 7.52.

`CCN(CC)CCN(Cc1ccc(-c2ccc(C(F)(F)F)cc2)cc1)C(=O)Cn1c(CCc2cc(F)ccc2F)nc(=O)c2ccccc21` gave a pIC50 of 6.08.

With `Cc1[nH]c2cc(F)ccc2c1C1=CCN(CCCCC2(C)C(=O)Nc3c(F)cccc32)CC1` (stereo not given) the pIC50 was 6.40.

For `O=C(CN1CCN(C(=O)c2ccco2)CC1)Nc1ccc(Br)cc1Cl`, the pIC50 was 6.11.

For `O=C(Nc1cccc(CN2CCCN(Cc3cccc(Cl)c3)CC2)c1)c1ccc(-c2ccccc2)cc1`, the pIC50 was 5.91.

With `NC(N)=NC(=O)Nc1cc(F)c(Cl)c(Br)c1` the pIC50 was 6.00.

Compound `Cc1[nH]c2ccc(NS(C)(=O)=O)cc2c1C1CCN(CCC2CCN(C(=O)/C=C/c3ccc(Cl)c(Cl)c3)CC2)CC1` has a pIC50 of 6.08.

`Cc1cc(N[C@@H](Cc2ccccc2)C(=O)NCCOc2ccccc2)nc(NCc2ccccc2C)n1` gave a pIC50 of 6.15.

Work on `O=C(C=Cc1ccc(Cl)c(Cl)c1)NCCCCCN1CCCC(CCCNC(=O)[C@@H]2C[C@H]2c2ccccc2)C1` (stereo not given in full) yielded a pIC50 of 5.95.

Compound `CN1CCc2cc(NS(=O)(=O)c3ccc(-c4ccc(Cl)cc4)cc3)c(OCCCN3CCCCC3)cc2CC1` has a pIC50 of 6.02.

`CC(C)Cn1cc(C2CCN(CCN3CCC(CNC(=O)c4ccc(NC(=O)c5ccc(Cl)cc5)cc4)CC3)CC2)c2ccccc21` showed a pIC50 of 6.60.

`CCNc1cc(C)nc(Nc2ccccc2)n1` gave a pIC50 of 6.06.

`CCc1ccc(NC(=O)c2ccc(CN3CCCN(Cc4cccc(Cl)c4)CC3)cc2)cc1` was tested, and the pIC50 was 5.95.

Compound `COc1ccc(C(=O)O)cc1OCc1ccccc1` has a pIC50 of 6.09.

`CCCN(CCC)C(=O)c1cc(C(=O)N[C@@H](Cc2ccccc2)[C@H](O)CNCc2cccc(C(F)(F)F)c2)cc(N2CCCCS2(=O)=O)c1` showed a pIC50 of 6.06.

For `CC(=O)Nc1cccc(C(=O)Nc2cccc(-c3ccc(-c4nc5ccc(F)cc5[nH]4)s3)c2)c1`, the pIC50 was 6.05.

`CS(=O)(=O)Cc1ccc(Nc2nccc(N3CCCc4cc(NC(=O)Nc5cccc(C(F)(F)F)c5)ccc43)n2)cc1` was tested, and the pIC50 was 6.82.
